Source: patent publication US4845130A, “Antihyperlipidemic amines” (United States Borax & Chemical Corporation, priority 1988, dated 1989)
Read-outs that look alike come from different tables or passages of the source.

What was measured:
serum cholesterol [1] = assay: Serum cholesterol (modified Liebermann-Burchard reaction) in mice; assay type: in vivo, male CF1 mice; conditions: for response vs control in vivo at 20 mg/kg: Mus musculus, 20 mg./kg./day intraparenterally, male CF1 mice; for Serum cholesterol, % of Control, Day 9 / Serum cholesterol, % of Control, Day 16: 8 mg./kg/day, procedure of Example 1
Procedure: (§1) For determining hypolipidemic activity, representative compounds of this invention were suspended in an aqueous 1% carboxymethylcellulose solution and tested at 20 mg./kg./ day administered intraparenterally to male CF1 mice (~25 g.). Six animals were used for each test. On days 9 and 16, blood was collected by tail vein bleeding and the serum separated by centrifugation for three minutes. Serum cholesterol levels were determined by a modified Liebermann-Burchard reaction. Serum triglyceride levels were also determined at 16 days using a Fisher-Hycel Triglyceride Test Kit.
(§2) The procedure of Example 1 was repeated with octade-cylamine and N,N-dimethyl-n-octadecylamine at a dosage of 8 mg./kg/ day.

serum triglyceride = assay: Serum triglyceride (Fisher-Hycel Triglyceride Test Kit) in mice; assay type: in vivo, male CF1 mice; conditions: Mus musculus, 384 h, Day 16; for response vs control in vivo at 20 mg/kg: 20 mg./kg./day intraparenterally; for response vs control in vivo at 8 mg/kg: 8 mg./kg/day, procedure of Example 1
Procedure: as §1, §2

serum cholesterol [2] = assay: Serum cholesterol (modified Liebermann-Burchard reaction) in mice; assay type: in vivo; conditions: Mus musculus, clofibrate at its therapeutic dose of 150 mg., male CF1 mice
[3] = 2.5 mg/kg in mice; cited from earlier work
[4] = tested on: ATP dependent citrate lyase; conditions: in vivo; cited from earlier work
acetyl CoA synthetase = conditions: in vivo; cited from earlier work
[5] = tested on: phosphatidate phosphohydrolase; conditions: in vivo; cited from earlier work
cholesterol excretion = conditions: mouse, in vivo; cited from earlier work
[6] = 216 h, Day 9, read-out: Serum Cholesterol, % of Control, Day 9
[7] = 384 h, Day 16, read-out: Serum Cholesterol, % of Control, Day 16

Row | Compound | response vs control in vivo at 20 mg/kg (serum cholesterol [1]; [6]) | response vs control in vivo at 20 mg/kg (serum cholesterol [1]; [7]) | response vs control in vivo at 20 mg/kg (serum triglyceride; male CF1 mice) | also measured
1 | CCCCCCCCCCCCCCCCN [1-hexadecylamine] | 39 ± 5% | 35 ± 4% | 63 ± 6% | 
2 | CCCCCCCCCCCCCCN [1-tetradecylamine] | 50 ± 4% | 34 ± 3% | 54 ± 6% | 
3 | CCCCCCCCCCCCCCCCCCN(C)C [N,N-dimethyl-n-octadecylamine] | 76 ± 6% | 61 ± 5% | 56 ± 3% | Serum cholesterol, % of Control, Day 9 (serum cholesterol [1]; Day 9): 91 ± 5 % of Control; Serum cholesterol, % of Control, Day 16 (serum cholesterol [1]; Day 16): 79 ± 5 % of Control; response vs control in vivo at 8 mg/kg (serum triglyceride): 84 ± 6%
4 | CCCCCCCCCCCCCCCCCCNC [N-methyloctadecylamine] | 51 ± 5% | 44 ± 4% | 64 ± 6% | 
5 | CCOC(=O)C(C)(C)Oc1ccc(Cl)cc1 [clofibrate] |  |  |  | response vs control in vivo at 150 mg (serum triglyceride; clofibrate at its therapeutic dose of 150 mg., male CF1 mice): 75 ± 5%; response vs control in vivo at 150 mg (serum cholesterol [2]; [6]): 88 ± 7%; response vs control in vivo at 150 mg (serum cholesterol [2]; [7]): 87 ± 5%
6 | CCCCCCCCCCN [decylamine] | 48 ± 4% | 38 ± 5% | 59 ± 6% | 
7 | CCCCCCCCCCCCN [dodecylamine] | 63 ± 6% | 61 ± 5% | 64 ± 4% | 
8 | CCCCCCCCCCCCCCCCCCN [octadecylamine] | 72 ± 5% | 64 ± 4% | 56 ± 4% | Serum cholesterol, % of Control, Day 9 (serum cholesterol [1]; Day 9): 63 ± 3 % of Control; Serum cholesterol, % of Control, Day 16 (serum cholesterol [1]; Day 16): 57 ± 4 % of Control; response vs control in vivo at 8 mg/kg (serum triglyceride): 60 ± 5%
9 | CCCCCCCCCCCCCN [tridecylamine] | 69 ± 5% | 67 ± 5% | 73 ± 7% | 
10 | CCCCCCCCCCCN [undecylamine] | 61 ± 5% | 57 ± 6% | 66 ± 5% | 
11 | tetrakis-u-(trimethylamine-borane carboxyato) bis(trimethylaminecarboxyborane)-dicopper (II) |  |  |  | hypolipidemic activity [3]: potent hypolipidemic agent; ATP dependent citrate lyase [4]: lower; acetyl CoA synthetase (acetyl CoA synthetase): lower; phosphatidate phosphohydrolase [5]: lower; cholesterol excretion from the body (cholesterol excretion): accelerate cholesterol excretion from the body
